Broadly, the inhibition is how much of the control response was suppressed. A low value points to little suppression. In general, % Inhibition refers to the change of the read-out against control, counted positive when it falls. The low end stands for a response near the control, the high end for a response far below the control.

One data set relates to guinea-pig platelets. The experiment in a line: U-46619 (thromboxane A2 mimic)-induced aggregation in guinea-pig platelets (Experiment 1). It is filed as cell-based. Conditions: guinea-pig PRP, U-46619 3×10^-7 M. The procedure: Thromboxane A2 antagonistic activity Effect on thromboxane A2 minic (U-46619) - induced aggregation in guinea-pig platelets.
(§1) Method: Blood was collected in 3.15% sodium citrate (0.1 ml for 0.9 ml of blood) by aortic puncture from anesthetized guinea-pigs. Citrated blood samples were centrifuged at 950 rpm for 10 minutes and 2,000 rpm for 10 minutes at room temperature to obtain platelet-rich plasma (PRP) and platelet-poor plasma (PPP), respectively. The platelet count of PRP was adjusted to 5,000,000/μl with PPP. Platelet aggregation was measured with a photometer (Hematracer 6, Niko Bioscience, Japan). PRP (250 μl) was preincubated at 37° C. for 2 minutes and then incubated for 2 minutes with drug solution (25 μl), followed by stimulation with U-46619 (25 μl). Effect of drug was shown as the percent inhibition of maximal aggregation of drug-treated group versus that of control group. The concentration of U-46619 was chosen to obtain submaximal aggregation in each PRP (3×10^-7 M).

The test system of a further data set is human platelets. Kind of data set: U-46619 (thromboxane A2 mimic)-induced aggregation in human platelets (Experiment 2). It is filed as cell-based. Particulars: Platelet, U-46619 10^-5 ~3×10^-5 M; for inhibition at 0.3 µM: 3 × 10^-7 M; for inhibition at 0.1 µM: 10^-7 M. The procedure:
Thromboxane A2 antagonistic activity Effect on thromboxane A2 minic (U-46619) - induced aggregation in human platelets.
as §1, with “300,000/μl” for “5,000,000/μl”, “(10^-5 ~3×10^-5” for “(3×10^-7”

The test system of data set [1] is guinea pig tracheal strip. Kind of data set: Inhibitory effect on U-46619 (TXA2 mimic)-induced contraction in guinea pig tracheal strip (Experiment 3). Particulars: Cavia porcellus; U-46619 10^-8 M; compound added 1 minute before; read-out: IC50 (Concentration for 50% inhibition). The procedure:
Inhibitory effect on U-46619 (TXA2 minic) - induced contraction in guinea pig tracheal strip
Method: Guinea pig tracheae were removed, and tracheal strips were prepared. Each strip was placed in a 10 ml organ bath containing Tyrode's solution aerated with 5% CO2 -95% O2 gas at 37° C. The tracheal strip was placed under resting tension of 1 g. The contractile response of the strip to thromboxane A2 minic U-46619 (10^-8 M) were examined. The strip was treated with the test compound for 1 minute before the addition of U-46619.
Result: The results are shown in Table 10 as the concentration for 50% inhibition (IC50).

For data set [2], the system named is U-46619 (TXA2 minic) - induced bronchoconstriction in guinea pig. Kind of data set: Inhibitory effect on U-46619 (TXA2 mimic)-induced bronchoconstriction in guinea pig (Experiment 4). It is filed as in vivo. Particulars: orally 1 hour before U-46619 (10 μg/kg), p < 0.01 vs control group. The procedure:
Inhibitory effect on U-46619 (TXA2 minic) - induced bronchoconstriction in guinea pig.
Method: Six male Hartley guinea pig were used per one group. The guinea pig anesthetized with urethane (1.5 g/kg, i.p.) was fixed in a dorsal position, subjected to tracheotomy and connected to a respirator through a cannula. A side branch of the tracheal cannula was connected to a respirator (Harvard apparatus rodent respirator Type 680) at the rate of 70 strokes/min. and a constant volume of 3 to 5 ml.
Inflation pressure was kept constant at 10 cm H2 O.
After treatment with gallamine triethiodide (1 mg/kg, i.v.), U-46619 (10 μg/kg) dissolved in a physiolosical saline solution was given through a carotid cannula and the airway resistance was measured by the overflow technique of Konzett-Rossler method (Konzett, H. and Rossler, R., Naunyn-Schmiedegerg's Arch, Exp. Path. Pharmak., 195, 71-74 (1940)). A test compound was suspended in 5% gum arabic solution and was administered orally 1 hour before the tratment with U-46619.

A further data set has as its system rats. Kind of data set: Oral toxicity in rats, 2 weeks. It is filed as in vivo, rat. Conditions: orally, 1000 mg/kg/day for 2 weeks, 3 rats. The procedure:
Toxicity of the derivatives of the present invention is low. For example, in case that (R)-7-(4-fluorophenyl)-7-(5-hydroxy-6,7-dimethyl-l-oxoindan-4-yl)heptanoicacid was administered orally to 3 rats at a dose of 1000 mg/kg/day for 2 weeks, no rat died. The derivatives of the present invention can be safely administered orally or parenterally as they are or as pharmaceutical compositions of known forms obtained by admixing them with known pharmaceutically acceptable carriers, excipients and the like, for example, tablets, capsules (including soft capsules and micro-capsules), liquids, injection preparations, suppositories and the like, according to pharmaceutically acceptable methods. The dosage is varied according to patients, routes of administration, conditions of diseases to be treated and the like. However, in the case of oral administration to, for example, an adult patient, usually, a dose per one administration is about 0.1 to 20 mg/kg of the body weight, perferably, about 0.1 to 10 mg/kg of the body weight and, conveniently, the administration is carried out one to two times per day.

Each structure is given as a SMILES string. pIC50: −log10 of the molar value.

For the molecule `Cc1c(C)c(CO)c(C)c([C@H](CCCCCC(=O)O)c2ccc(F)cc2)c1O` [Compound 20, (R)-7-(4-fluorophenyl)-7-(2-hydroxy-5-hydroxylmethyl-3,4,6-trimethylphenyl)heptanoic acid], the figures for the “% Inhibition of aggregation” value with guinea-pig platelets (3 × 10^-8 M), in the data set with guinea-pig platelets (10^-7 M) and with guinea-pig platelets (10^-8 M) were 12%, 77% and 3%, respectively. This molecule also showed an inhibition at 0.3 µM with human platelets of 100%. Further, in the data set on human platelets, testing at 0.1 µM gave an inhibition of 48%.
In the case of `Cc1c(C)c2c(c([C@H](CCCCCC(=O)O)c3ccc(F)cc3)c1O)CCC2=O` [Compound 28, (R)-7-(4-fluorophenyl)-7-(5-hydroxy-6,7-dimethyl-1-oxoindan-4-yl)heptanoic acid], the “% Inhibition of aggregation” value in the data set on guinea-pig platelets (3 × 10^-8 M) came out at 5%; in the data set on guinea-pig platelets (10^-7 M) it was 36%; in the data set with guinea-pig platelets (10^-8 M), 0%. Also, the inhibition at 0.3 µM in the data set on guinea-pig platelets (Cavia porcellus, Platelet, 3 × 10^-7 M) was determined as 89%; with human platelets, 100%. This molecule also yielded an inhibition at 0.03 µM in the data set on human platelets (3 × 10^-8 M) of 30%. In addition, at 0.1 µM the inhibition in the data set on human platelets was 78%. Besides, in the data set on human platelets (10^-8 M), the inhibition at 0.01 µM is 13%. Besides, the pIC50 in data set [1] was 9.15. Besides, the “% Inhibition” value in data set [2] (0.31 mg/kg) and in data set [2] (1.25 mg/kg) was 84% throughout. The mortality result in the data set on rats was “no rat died”.

Values taken from US5354913A, “Optically active phenol derivatives and preparation thereof” (Takeda Chemical Industries, Ltd., priority 1992, dated 1994).
